Reference: ChEMBL document CHEMBL1153143, “Structure-based design, synthesis and biological evaluation of new N-carboxyphenylpyrrole derivatives as HIV fusion inhibitors targeting gp41” (Bioorg Med Chem Lett, 2010)

What was measured:
[1] = test system: Human immunodeficiency virus 1; assay: Antiviral activity against HIV1 3B in human MT2 cells assessed as inhibition of p24 antigen level after 4 days by ELISA; assay type: functional, organism-based; conditions: Human immunodeficiency virus 1, 3B, MT2, 96 h
MT2 = assay: Cytotoxicity against human MT2 cells after 4 days by XTT assay; assay type: cell-based; conditions: mt2, 96 h
[2] = Selectivity index, ratio of CC50 for human MT2 cells to EC50 for HIV1 3B; assay type: toxicity, cell-based; conditions: read-out: Ratio CC50/IC50
[3] = Inhibition of HIV1 3B gp41 six-helix bundle formation after 30 mins by native-polyacrylamide gel electrophoresis; parameters: species or system Human immunodeficiency virus 1
[4] = test system: Human immunodeficiency virus 1; assay: Antiviral activity against HIV1 3B in human MT2 cells assessed as reduction of virus-induced cytopathogenicity; assay type: functional, organism-based; conditions: Human immunodeficiency virus 1, 3B
[5] = test system: Human immunodeficiency virus 1; assay: Antiviral activity against HIV1 3B in human MT2 cells assessed as inhibition of cell-cell fusion; assay type: functional, organism-based; conditions: Human immunodeficiency virus 1, 3B

Structure (SMILES): Cc1ccc(C)n1-c1ccc(O)c(C(=O)O)c1
- IC50 [1]: 28.2 µM
- CC50 (MT2): 334 µM
- selectivity ratio [2]: 11.8
- IC50 [3]: 29.4 µM
- IC50 [4]: 55.5 µM
- IC50 [5]: 43.2 µM

Structure (SMILES): Cc1ccc(C)n1-c1ccc(-c2ccc(CCC(=O)O)cc2)c(C(=O)O)c1
- IC50 [1]: 8.3 µM
- CC50 (MT2): 227 µM
- selectivity ratio [2]: 27.4
- IC50 [3]: 21.8 µM
- IC50 [4]: 13.1 µM
- IC50 [5]: 8.3 µM

Structure (SMILES): Cc1ccc(C)n1-c1ccc(-c2ccccc2)c(C(=O)O)c1
- IC50 [1]: 17.8 µM
- CC50 (MT2): 290 µM
- selectivity ratio [2]: 16.3
- IC50 [3]: 29 µM
- IC50 [4]: 37.9 µM
- IC50 [5]: 59.2 µM

Structure (SMILES): Cc1ccc(C)n1-c1ccc(-c2ccc(C(=O)O)cc2)c(C(=O)O)c1
- IC50 [1]: 25.6 µM
- CC50 (MT2): 355 µM
- selectivity ratio [2]: 13.8
- IC50 [3]: 20.5 µM
- IC50 [4]: 33.9 µM
- IC50 [5]: 26 µM

Structure (SMILES): Cc1ccc(C)n1-c1ccc(-c2ccc(/C=C/C(=O)O)cc2)c(C(=O)O)c1
- IC50 [1]: 4.91 µM
- CC50 (MT2): 255 µM
- IC50 [3]: 20.7 µM
- IC50 [4]: 7.71 µM
- IC50 [5]: 3.6 µM

Structure (SMILES): Cc1ccc(-c2ccc(-n3c(C)ccc3C)cc2C(=O)O)cc1
- IC50 [1]: 18.2 µM
- CC50 (MT2): 280 µM
- selectivity ratio [2]: 15.4
- IC50 [3]: 21.3 µM
- IC50 [4]: 79.5 µM
- IC50 [5]: 51.6 µM
